The values below come from ChEMBL document CHEMBL1121876, “gamma-Aminobutyric acid agonists, antagonists, and uptake inhibitors. Design and therapeutic aspects” (J Med Chem, 1981).

By EC50 is commonly meant the concentration at which the effect is half-maximal. A higher EC50 goes with a less potent agent. What is called IC50 is the concentration at which inhibition is half-maximal.

The target in test [1] is GABA-A receptor; anion channel. Briefly: Activation of binding of [3H]diazepam to Gamma-aminobutyric acid receptor. It counts as protein-complex assay.
Test [2] deals with GABA-A receptor; anion channel. The test is described as follows: In vitro inhibition of [3H]P4S binding to Gamma-aminobutyric acid receptor of human astrocytes.
Test [3] has as its target GABA-A receptor; anion channel. The test is described as follows: In vitro inhibition of [3H]isoguvacine binding to Gamma-aminobutyric acid receptor of human astrocytes.
Test [4] is described as follows: Inhibition of neuronal GABA uptake. The format is functional.
Test [5] addresses GABA-A receptor; anion channel. Briefly: In vitro inhibition of [3H]muscimol binding to Gamma-aminobutyric acid receptor of human astrocytes.
A short description of test [6]: Inhibition of glial GABA uptake. The format is functional.
Test [7] has as its target GABA-A receptor; anion channel. The test is described as follows: In vitro inhibition of [3H]-THIP binding to Gamma-aminobutyric acid receptor of human astrocytes.
Test [8] has as its target GABA-A receptor; anion channel. Briefly: In vitro inhibition of [3H]GABA binding to Gamma-aminobutyric acid receptor of human astrocytes.

Where only a bound is given, the exact number is not on record here.

Take `C[C@@H](N)CCC(=O)O`: in test [1], the EC50 came out at 410 µM. The IC50 turned out to be 21 µM in test [2]; 6.1 µM in test [3]; 200 µM in test [4]; 4.3 µM in test [5]; 120 µM in test [6]; 2.5 µM in test [7]. The IC50 in test [8] amounted to 5 µM.
On to `C[C@@H](N)c1cc(O)no1`, for which, in test [1], a half-maximal effect (EC50) was put at 2300 µM. For the same compound, the 50% inhibitory concentration (IC50) in test [2] is 83 µM; in test [3], 8.2 µM; in test [4], above 1000 µM; in test [5] it was 8.9 µM; in test [6], above 1000 µM; in test [7] it was 9.5 µM. This compound registered an IC50 in test [8] of 19 µM.
The compound `C[C@H](N)CCC(=O)O` yielded an EC50 in test [1] of 550 µM. Moreover, the half-inhibitory concentration (IC50) in test [2] came out at 24 µM; in test [3] it was 5.2 µM; in test [4], 750 µM; in test [5], 2.5 µM; in test [6], 1000 µM; in test [7] it was 2.9 µM. In test [8], the IC50 was found to be 4.7 µM.
Regarding `C[C@H](N)c1cc(O)no1`, in test [1], a half-maximal response (EC50) required 230 µM. In addition, the IC50 was 5.8 µM in test [2]; 1.6 µM in test [3]; above 1000 µM in test [4]; 0.51 µM in test [5]; above 1000 µM in test [6]; 0.74 µM in test [7]. For the same compound, in test [8], the 50% inhibitory concentration (IC50) came out at 0.64 µM.
As for `C[C@H](N)/C=C/C(=O)O`, in test [1], the midpoint of the response, the EC50, lay at 390 µM. For the same compound, the IC50 is 21 µM in test [2]; 2.5 µM in test [3]; above 5000 µM in test [4]; 3.5 µM in test [5]; above 5000 µM in test [6]; 2.6 µM in test [7]. The same compound had an IC50 in test [8] of 4.1 µM.
`C[C@@H](N)/C=C/C(=O)O` yielded an EC50 in test [1] above 2000 µM. Moreover, the IC50 in test [2] came to 670 µM; in test [3], 84 µM; in test [4], 160 µM; in test [5], 145 µM; in test [6], 500 µM; in test [7], 88 µM. Besides, the half-maximal inhibitory concentration (IC50) in test [8] is 148 µM.
